Data from PubChem BioAssay AID588689 (Southern Research Specialized Biocontainment Screening …, 2011).

Molecular target: Genome polyprotein (Dengue virus type 2 (strain 16681-PDK53)) (UniProt P29991)
Assay: flavivirus cap methylation enzyme inhibition – biochemical, confirmation dose response, primary screen (AID 588689)
Settings: Dengue-2 NS5 methyltransferase capping enzyme assay

Genome polyprotein (Dengue virus type 2 (strain 16681-PDK53)), sequence (P29991 whole entry, looked up): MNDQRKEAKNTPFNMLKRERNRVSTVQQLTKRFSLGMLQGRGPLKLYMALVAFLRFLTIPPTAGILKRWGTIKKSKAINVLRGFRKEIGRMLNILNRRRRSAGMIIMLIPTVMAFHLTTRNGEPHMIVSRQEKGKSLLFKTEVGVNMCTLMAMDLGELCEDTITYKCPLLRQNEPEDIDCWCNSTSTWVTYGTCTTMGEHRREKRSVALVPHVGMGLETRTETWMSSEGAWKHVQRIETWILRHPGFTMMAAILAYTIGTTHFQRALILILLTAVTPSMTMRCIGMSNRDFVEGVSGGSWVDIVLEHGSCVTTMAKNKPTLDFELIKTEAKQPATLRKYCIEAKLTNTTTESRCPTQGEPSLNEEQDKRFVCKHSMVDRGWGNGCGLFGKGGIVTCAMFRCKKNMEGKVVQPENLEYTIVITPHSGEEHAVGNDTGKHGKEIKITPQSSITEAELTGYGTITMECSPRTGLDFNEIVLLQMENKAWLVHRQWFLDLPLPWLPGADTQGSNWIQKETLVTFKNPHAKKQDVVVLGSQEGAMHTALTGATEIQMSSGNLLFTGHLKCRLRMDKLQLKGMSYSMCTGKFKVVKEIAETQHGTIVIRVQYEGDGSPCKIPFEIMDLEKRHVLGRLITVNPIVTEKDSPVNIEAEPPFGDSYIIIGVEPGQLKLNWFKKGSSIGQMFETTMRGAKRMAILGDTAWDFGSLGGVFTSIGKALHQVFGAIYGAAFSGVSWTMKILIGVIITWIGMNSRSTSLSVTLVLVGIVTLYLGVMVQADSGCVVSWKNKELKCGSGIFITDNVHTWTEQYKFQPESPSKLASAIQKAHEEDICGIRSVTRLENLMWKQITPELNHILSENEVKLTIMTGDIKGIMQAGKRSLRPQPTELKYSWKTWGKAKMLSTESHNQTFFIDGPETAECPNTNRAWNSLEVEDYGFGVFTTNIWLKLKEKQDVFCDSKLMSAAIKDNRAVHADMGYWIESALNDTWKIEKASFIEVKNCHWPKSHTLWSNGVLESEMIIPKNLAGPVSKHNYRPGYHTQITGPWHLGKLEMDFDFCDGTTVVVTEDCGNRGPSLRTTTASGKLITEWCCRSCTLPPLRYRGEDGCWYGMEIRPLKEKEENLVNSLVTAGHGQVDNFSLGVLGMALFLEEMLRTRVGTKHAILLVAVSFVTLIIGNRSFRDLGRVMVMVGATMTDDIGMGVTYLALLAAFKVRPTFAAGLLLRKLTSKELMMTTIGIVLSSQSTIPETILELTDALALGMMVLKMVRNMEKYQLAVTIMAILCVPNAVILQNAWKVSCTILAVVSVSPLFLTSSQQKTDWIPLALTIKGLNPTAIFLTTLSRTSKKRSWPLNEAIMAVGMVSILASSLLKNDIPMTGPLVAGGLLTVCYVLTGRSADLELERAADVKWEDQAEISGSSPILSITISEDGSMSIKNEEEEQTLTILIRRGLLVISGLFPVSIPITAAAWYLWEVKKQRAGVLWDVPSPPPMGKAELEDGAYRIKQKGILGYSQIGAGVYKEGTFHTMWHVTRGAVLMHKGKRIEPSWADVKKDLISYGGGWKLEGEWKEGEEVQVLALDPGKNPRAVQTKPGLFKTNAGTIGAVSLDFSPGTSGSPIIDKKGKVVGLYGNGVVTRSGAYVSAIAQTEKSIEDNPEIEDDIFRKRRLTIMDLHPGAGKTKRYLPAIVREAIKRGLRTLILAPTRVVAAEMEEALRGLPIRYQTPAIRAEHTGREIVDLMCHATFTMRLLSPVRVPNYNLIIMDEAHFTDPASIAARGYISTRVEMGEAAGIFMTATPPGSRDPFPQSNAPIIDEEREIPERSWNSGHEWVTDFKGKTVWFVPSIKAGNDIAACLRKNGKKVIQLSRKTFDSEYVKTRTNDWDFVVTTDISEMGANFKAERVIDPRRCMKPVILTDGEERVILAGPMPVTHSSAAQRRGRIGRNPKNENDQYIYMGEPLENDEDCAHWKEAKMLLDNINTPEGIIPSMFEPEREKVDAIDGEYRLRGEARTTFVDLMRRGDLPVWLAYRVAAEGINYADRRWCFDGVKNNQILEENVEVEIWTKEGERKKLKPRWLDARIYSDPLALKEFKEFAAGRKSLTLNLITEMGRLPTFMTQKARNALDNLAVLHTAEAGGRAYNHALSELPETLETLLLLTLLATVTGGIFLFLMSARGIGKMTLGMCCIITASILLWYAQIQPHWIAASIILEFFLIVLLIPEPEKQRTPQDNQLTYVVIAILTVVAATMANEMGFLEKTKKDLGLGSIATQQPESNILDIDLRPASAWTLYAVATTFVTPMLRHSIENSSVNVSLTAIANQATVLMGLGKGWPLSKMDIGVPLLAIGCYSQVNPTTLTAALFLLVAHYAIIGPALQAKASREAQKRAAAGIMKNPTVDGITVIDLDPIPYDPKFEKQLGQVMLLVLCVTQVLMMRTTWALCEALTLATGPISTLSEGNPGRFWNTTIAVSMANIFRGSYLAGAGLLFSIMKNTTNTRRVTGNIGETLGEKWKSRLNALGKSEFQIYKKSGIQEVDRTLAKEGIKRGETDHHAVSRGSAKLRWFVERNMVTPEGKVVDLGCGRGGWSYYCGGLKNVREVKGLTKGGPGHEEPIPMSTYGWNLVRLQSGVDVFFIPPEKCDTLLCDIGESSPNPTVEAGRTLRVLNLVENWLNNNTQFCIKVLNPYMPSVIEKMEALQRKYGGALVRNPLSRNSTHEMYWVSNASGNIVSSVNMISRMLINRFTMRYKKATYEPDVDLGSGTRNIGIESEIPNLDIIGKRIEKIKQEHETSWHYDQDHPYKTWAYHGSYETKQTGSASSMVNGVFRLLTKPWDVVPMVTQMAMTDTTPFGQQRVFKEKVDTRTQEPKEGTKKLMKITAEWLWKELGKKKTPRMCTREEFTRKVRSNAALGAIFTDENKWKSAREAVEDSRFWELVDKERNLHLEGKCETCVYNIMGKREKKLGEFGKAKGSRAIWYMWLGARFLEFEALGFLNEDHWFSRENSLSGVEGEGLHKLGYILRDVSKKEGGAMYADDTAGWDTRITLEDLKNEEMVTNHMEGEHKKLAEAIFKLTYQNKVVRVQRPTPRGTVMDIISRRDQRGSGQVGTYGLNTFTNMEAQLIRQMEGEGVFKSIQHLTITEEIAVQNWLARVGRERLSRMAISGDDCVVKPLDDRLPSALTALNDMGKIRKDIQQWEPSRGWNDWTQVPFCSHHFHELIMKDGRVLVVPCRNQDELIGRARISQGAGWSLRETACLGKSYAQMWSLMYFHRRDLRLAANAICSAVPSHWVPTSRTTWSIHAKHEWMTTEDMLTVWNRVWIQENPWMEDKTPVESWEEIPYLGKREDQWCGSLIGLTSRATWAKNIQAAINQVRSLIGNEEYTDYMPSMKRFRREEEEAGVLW

IC50 [µM] | SMILES
14 | CCCCC1(C)OC(=O)C(=Cc2ccc(-c3ccc(Cl)c(C(=O)O)c3)o2)C(=O)O1 (configuration not stated)
34.6 | C=Cc1c(C)c2cc3[nH]c(cc4nc(cc5nc(cc1[nH]2)C(C)=C5CCC(=O)O)C(CCC(=O)O)=C4C)c(C)c3C=C
